According to paper PMC10269561, “Absence of Clinically Meaningful Drug-Drug Interactions with Rezafungin: Outcome of Investigations” (Microbiology Spectrum, 2023):
Entries after “also recorded” stand apart in the source; their conditions may differ. Numbered stars: 1 amine (or outer) side, 2 acyl side, 3 side chain; on linkers, the order of the positions; unused ones are H or OH. Bridge positions count the residues as written; N and C are the ends. Square brackets hold non-standard residues; d marks the D form. Peptide text beside a SMILES is read from it. * marks the point of attachment. Orn(4R-OH,5R-OCH2CH2NMe3+) = C[N+](C)(C)CCO[C@@H](N[*:3])[C@H](O)C[C@H](N[*:1])C(=O)[*:2]; pTerphenylCO(4''-OnC5H11) = CCCCCOc1ccc(-c2ccc(-c3ccc(C(=O)*)cc3)cc2)cc1; hTyr(3S-OH,4S-OH) = N[C@H](C(=O)O)[C@H](O)[C@@H](O)c1ccc(O)cc1; Pro(3S-OH,4S-Me) = C[C@H]1CN[C@H](C(=O)O)[C@H]1O; Hyp = O=C(O)[C@@H]1C[C@@H](O)CN1

Legend:
human OCT2 = human OCT2 (Homo sapiens, UniProt O15244); test: NC-152 transporter inhibition, OCT2; type: in vitro ADME; conditions: in vitro cell test system
Chain of human OCT2 (O15244 whole entry): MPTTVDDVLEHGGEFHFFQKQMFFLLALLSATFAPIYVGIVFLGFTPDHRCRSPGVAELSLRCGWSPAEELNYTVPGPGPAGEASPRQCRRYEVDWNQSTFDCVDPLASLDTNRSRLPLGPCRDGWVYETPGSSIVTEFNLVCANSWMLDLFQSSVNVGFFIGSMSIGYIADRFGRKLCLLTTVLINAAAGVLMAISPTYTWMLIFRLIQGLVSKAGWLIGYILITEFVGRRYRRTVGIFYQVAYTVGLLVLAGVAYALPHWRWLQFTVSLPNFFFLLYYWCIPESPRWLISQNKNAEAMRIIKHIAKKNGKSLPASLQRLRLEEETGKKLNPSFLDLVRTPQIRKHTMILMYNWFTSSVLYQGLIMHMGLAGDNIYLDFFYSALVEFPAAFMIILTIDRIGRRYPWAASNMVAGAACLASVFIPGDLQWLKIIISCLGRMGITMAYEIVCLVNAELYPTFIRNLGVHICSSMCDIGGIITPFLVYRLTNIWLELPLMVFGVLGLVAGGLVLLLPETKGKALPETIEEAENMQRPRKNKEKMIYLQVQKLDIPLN
From the text: (§1) Microbiology Spectrum Supplementary materials
(§2) Table S 4Summary of initial in vitro assessments […]
(§3) whether rezafungin can induce CYP isoforms 1A2, 2B6, or 3A4. mRNA expression) of CYP1A2 and CYP2B6, and, in the case of […]
(§4) Abbreviations: ABC = ATP binding cassette; BCRP = breast cancer resistance protein; BSEP = bile salt export pump; CYP = cytochrome P450; MATE = multidrug and toxic compound extrusion; MDCK = Madin-Darby canine kidney; MDR = multidrug resistance protein; mRNA = messenger ribonucleic acid; OAT = organic anion transporter; OATP = organic anion transporter protein; OCT – organic cation transporter; OCTN = organic cation transporter novel; P-gp = P-glycoprotein; SLC = solute carrier.

CYP2B6 = CYP2B6 (Homo sapiens, UniProt P20813); test: NC-012 CYP450 inhibition screening, recombinant CYP2B6; type: in vitro ADME; conditions: 10 μM, fluorogenic substrate, recombinant human CYP
Chain of CYP2B6 (P20813 whole entry): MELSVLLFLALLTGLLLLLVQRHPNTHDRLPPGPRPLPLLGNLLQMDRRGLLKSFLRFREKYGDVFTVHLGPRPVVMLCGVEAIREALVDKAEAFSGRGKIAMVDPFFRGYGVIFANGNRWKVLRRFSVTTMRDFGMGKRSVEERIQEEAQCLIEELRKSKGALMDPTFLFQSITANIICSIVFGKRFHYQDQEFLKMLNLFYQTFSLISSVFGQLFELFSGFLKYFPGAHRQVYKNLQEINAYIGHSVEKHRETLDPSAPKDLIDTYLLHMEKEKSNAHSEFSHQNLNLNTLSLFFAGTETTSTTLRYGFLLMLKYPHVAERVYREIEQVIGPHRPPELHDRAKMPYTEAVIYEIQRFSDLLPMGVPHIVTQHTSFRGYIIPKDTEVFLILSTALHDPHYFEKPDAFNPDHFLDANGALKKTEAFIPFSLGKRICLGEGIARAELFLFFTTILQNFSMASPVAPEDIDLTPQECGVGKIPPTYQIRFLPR
From the text: as §1, §2, §3, §4

CYP2D6 = CYP2D6 (Homo sapiens, UniProt P10635); test: NC-153 time-dependent inhibition in human liver microsomes, CYP2D6; type: in vitro ADME; conditions: 0.1 to 25 μM
Chain of CYP2D6 (P10635 whole entry): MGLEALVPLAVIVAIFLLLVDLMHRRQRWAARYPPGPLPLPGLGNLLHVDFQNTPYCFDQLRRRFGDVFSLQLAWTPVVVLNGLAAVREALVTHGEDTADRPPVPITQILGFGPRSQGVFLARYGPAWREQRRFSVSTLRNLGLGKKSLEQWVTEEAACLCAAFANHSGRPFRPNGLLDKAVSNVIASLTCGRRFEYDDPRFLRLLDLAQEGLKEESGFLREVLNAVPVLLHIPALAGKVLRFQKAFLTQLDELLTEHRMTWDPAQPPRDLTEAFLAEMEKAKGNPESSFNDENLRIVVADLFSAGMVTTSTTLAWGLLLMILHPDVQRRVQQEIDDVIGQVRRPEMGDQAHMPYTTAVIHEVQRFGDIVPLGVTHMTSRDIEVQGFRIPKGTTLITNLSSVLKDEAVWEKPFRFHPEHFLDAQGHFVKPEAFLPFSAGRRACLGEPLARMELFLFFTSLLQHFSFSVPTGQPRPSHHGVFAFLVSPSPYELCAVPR
From the text: as §1, §2, §3, §4

human P-gp = human P-gp (Homo sapiens, UniProt P08183); test: NC-152 transporter inhibition, P-gp; type: in vitro ADME; conditions: in vitro cell test system
Chain of human P-gp (P08183 whole entry): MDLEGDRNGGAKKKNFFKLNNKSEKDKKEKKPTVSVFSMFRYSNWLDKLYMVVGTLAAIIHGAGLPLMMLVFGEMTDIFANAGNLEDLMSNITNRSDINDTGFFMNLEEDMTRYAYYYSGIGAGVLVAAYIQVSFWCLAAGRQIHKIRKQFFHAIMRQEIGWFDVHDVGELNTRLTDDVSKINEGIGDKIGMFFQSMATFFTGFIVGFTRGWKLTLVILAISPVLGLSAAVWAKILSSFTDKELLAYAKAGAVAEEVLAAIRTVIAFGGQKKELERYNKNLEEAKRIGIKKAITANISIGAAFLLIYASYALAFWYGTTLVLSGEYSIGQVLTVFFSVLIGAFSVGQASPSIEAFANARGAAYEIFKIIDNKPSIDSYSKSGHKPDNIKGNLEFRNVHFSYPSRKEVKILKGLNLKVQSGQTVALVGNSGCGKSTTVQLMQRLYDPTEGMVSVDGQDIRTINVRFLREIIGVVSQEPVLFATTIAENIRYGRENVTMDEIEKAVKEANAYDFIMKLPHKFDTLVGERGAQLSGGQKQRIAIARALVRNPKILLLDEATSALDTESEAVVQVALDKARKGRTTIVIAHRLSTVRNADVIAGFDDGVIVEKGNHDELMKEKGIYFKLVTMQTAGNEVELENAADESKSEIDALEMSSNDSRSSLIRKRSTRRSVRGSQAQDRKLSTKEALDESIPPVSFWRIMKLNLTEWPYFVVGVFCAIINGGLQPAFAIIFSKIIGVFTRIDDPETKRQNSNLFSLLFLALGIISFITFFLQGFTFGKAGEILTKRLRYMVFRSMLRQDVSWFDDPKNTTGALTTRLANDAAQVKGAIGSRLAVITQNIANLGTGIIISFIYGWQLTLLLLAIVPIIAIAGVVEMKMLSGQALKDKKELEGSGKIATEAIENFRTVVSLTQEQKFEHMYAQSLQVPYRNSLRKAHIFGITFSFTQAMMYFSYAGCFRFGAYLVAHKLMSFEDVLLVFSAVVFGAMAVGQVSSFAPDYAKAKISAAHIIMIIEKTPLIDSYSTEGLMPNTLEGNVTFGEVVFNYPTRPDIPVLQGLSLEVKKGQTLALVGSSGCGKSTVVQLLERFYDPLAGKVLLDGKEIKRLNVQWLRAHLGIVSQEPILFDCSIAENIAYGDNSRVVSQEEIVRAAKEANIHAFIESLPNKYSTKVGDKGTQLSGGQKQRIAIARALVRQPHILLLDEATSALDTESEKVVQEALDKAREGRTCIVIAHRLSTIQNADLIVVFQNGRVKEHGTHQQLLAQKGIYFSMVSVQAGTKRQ
From the text: Abbreviations: ABC = ATP binding cassette; BCRP = breast cancer resistance protein; BSEP = bile salt export pump; CYP = cytochrome P450; MATE =
multidrug and toxic compound extrusion; MDCK = Madin-Darby canine kidney; MDR = multidrug resistance protein; mRNA = messenger ribonucleic acid;
OAT = organic anion transporter; OATP = organic anion transporter protein; OCT – organic cation transporter; OCTN = organic cation transporter novel; P-gp =
P-glycoprotein; SLC = solute carrier.

[1] = Precipitation in human liver microsome incubations (NC-153); type: physicochemical
From the text: as §1, §2, §3, §4

[2] = Study 1 safety and tolerability (TEAEs); type: in vivo, human
Protocol: After screening, subjects were admitted to the clinical research unit (CRU) prior to the first dose of rezafungin (from day −22) and were discharged from the CRU on day 22. Nine oral substrate drugs were administered as part of a cocktail containing two or more drugs once before and once after receiving rezafungin on a schedule designed to allow the washout of the drugs in the cocktail between doses and limit interactions with other drugs (Fig. 4A). […] A loading dose of rezafungin for injection (600 mg) was administered over 1 h on day 1, followed by two once-weekly 400-mg doses over 1 h on days 10 and 15. Due to a short delay in the availability of the investigation study drug, the second once-weekly dose of rezafungin and the second set of oral substrate drugs were administered on day 10 instead of day 8, although the time between doses remained sufficient for all originally planned PK samplings through 96 h postdose and for the adequate washout of the substrate drugs. The total duration of treatment was up to 89 days, including 45 days of screening and 44 days of treatment in the CRU.
as §1
Table S 2Summary of t reatment-emergent adverse e vents for Study 1
System Organ Class Safety Population Adverse Event Severity(N=26), n Rezafungin Safety Population (N=26), n
Adverse Event Mild Moderate Severe Mild Moderate Severe […]

SMILES: CCCCCOc1ccc(-c2ccc(-c3ccc(C(=O)N[C@H]4C[C@@H](O)[C@@H](OCC[N+](C)(C)C)NC(=O)[C@@H]5[C@@H](O)[C@@H](C)CN5C(=O)[C@H]([C@@H](C)O)NC(=O)[C@H]([C@H](O)[C@@H](O)c5ccc(O)cc5)NC(=O)[C@@H]5C[C@@H](O)CN5C(=O)[C@H]([C@@H](C)O)NC4=O)cc3)cc2)cc1 [Rezafungin] ({pTerphenylCO(4''-OnC5H11)}-[Orn(4R-OH,5R-OCH2CH2NMe3+)]T[Hyp][hTyr(3S-OH,4S-OH)]T[Pro(3S-OH,4S-Me)]; lactam 1-C)
- inhibitor of probe substrate transport mediated via OCT2 (human OCT2): determined to be an inhibitor
- inhibition of CYP2B6 (CYP2B6): Minimal inhibition
- time-dependent inhibitor of CYP2D6 (CYP2D6): not a time-dependent inhibitor
- inhibitor of probe substrate transport mediated via P-gp (human P-gp): determined to be an inhibitor; also recorded: could not be ruled out
- concentration at which precipitation occurred [1]: ≥ 25 µM
- serious TEAEs, deaths, discontinuations due to a TEAE ([2]; Study 1): no serious TEAEs or deaths or discontinuations due to a TEAE
- tolerability ([2]; once-weekly i.v. infusions, 600-mg loading dose followed by two 400-mg maintenance doses): generally well tolerated
